In patent US11236052B2, “Aminobenzimidazole derivatives, treatments, and methods of inhibiting histone deacetylase” (TRANSLATIONAL DRUG DEVELOPMENT, LLC, priority 2017, dated 2022):

How the values were obtained:
MDA-157 = assay: CellTiter-Glo cell viability assay, MDA-157; assay type: cell-based; settings: Breast; for IC50: MDA-157, 72 hours
Description: (§1) Cell Viability Assay—Cell viability was measured by the CellTiter-Glo® cell viability assay Promega (Madison, Wis.). The CellTiter-Glo® Luminescent Cell Viability Assay is a homogeneous method to determine the number of viable cells in culture based on quantitation of the ATP present, which signals the presence of metabolically active cells. Following treatment, CellTiter-Glo® is added to treatment wells and incubated at 37° C. luminescence values were measured at using a Molecular Devices Spectramax microplate reader.
(§2) Single Agent Studies—Cells were grown to 70% confluency, trypsinized, counted, and seeded in 96 well flat-bottom plates at a final concentration of 2.5×10^3-5×10^3 cells/well (Day 0). Cells were allowed to incubate in growth media for 24 hours. Treatment with the test agents began on Day 1 and continued for 72 hours. At the 72-hour time point, treatment-containing media was removed. Viable cell numbers are quantified by the CellTiter-Glo® cell viability assay as described above. Experiments were run with triplicate concentrations to determine growth inhibitory activity. Results from these studies were used to calculate an IC50 value (concentration of drug that inhibits cell growth by 50 percent of control) for each compound.
(§3) Data Collection—For single agent and combination studies, data from each experiment was collected and expressed as % Cell Growth using the following calculation: % Cell Growth=(ftest/fvehicle)×100
(§4) Where ftest is the luminescence of the tested sample, and fvehicle is the luminescence of the vehicle in which the drug is dissolved. Dose response graphs and IC50 values were generated using Prism 6 software (GraphPad).

MDA468 = assay: CellTiter-Glo cell viability assay, MDA468; assay type: cell-based; settings: Breast; for IC50: MDA468, 72 hours
Description: as §1, §2, §3, §4

AN3CA = assay: CellTiter-Glo cell viability assay, AN3CA; assay type: cell-based; settings: Uterine; for IC50: Homo sapiens, AN3-CA, 72 hours
Description: as §1, §2, §3, §4

SKUT-1 = assay: CellTiter-Glo cell viability assay, SKUT-1; assay type: cell-based; settings: Uterine; for IC50: Homo sapiens, SK-UT-1, SKUT-1, 72 hours
Description: as §1, §2, §3, §4

MFE296 = assay: CellTiter-Glo cell viability assay, MFE296; assay type: cell-based; settings: Uterine; for IC50: Homo sapiens, MFE-296, MFE296, 72 hours
Description: as §1, §2, §3, §4

KMS-11 = assay: CellTiter-Glo cell viability assay, KMS-11; assay type: cell-based; settings: Myeloma; for IC50: Homo sapiens, KMS-11, 72 hours
Description: as §1, §2, §3, §4

RPMI-8226 = assay: CellTiter-Glo cell viability assay, RPMI-8226; assay type: cell-based; settings: Myeloma; for IC50: Homo sapiens, RPMI-8226, 72 hours
Description: as §1, §2, §3, §4

U266 = assay: CellTiter-Glo cell viability assay, U266; assay type: cell-based; settings: Myeloma; for IC50: Homo sapiens, U-266, U266, 72 hours
Description: as §1, §2, §3, §4

MV411 = assay: CellTiter-Glo cell viability assay, MV411; assay type: cell-based; settings: AML; for IC50: Homo sapiens, MV4-11, MV411, 72 hours
Description: as §1, §2, §3, §4

SUDHL-4 = assay: CellTiter-Glo cell viability assay, SUDHL-4; assay type: cell-based; settings: Lymphoma; for IC50: Homo sapiens, SU-DHL-4, SUDHL-4, 72 hours
Description: as §1, §2, §3, §4

OCI-LY3 = assay: CellTiter-Glo cell viability assay, OCI-LY3; assay type: cell-based; settings: Lymphoma; for IC50: Homo sapiens, OCI-LY3, 72 hours
Description: as §1, §2, §3, §4

RAMOS = assay: CellTiter-Glo cell viability assay, RAMOS; assay type: cell-based; settings: Lymphoma; for IC50: Homo sapiens, 72 hours
Description: as §1, §2, §3, §4

Mino = assay: CellTiter-Glo cell viability assay, Mino; assay type: cell-based; settings: Lymphoma; for IC50: Homo sapiens, 72 hours
Description: as §1, §2, §3, §4

BC-1 = assay: CellTiter-Glo cell viability assay, BC-1; assay type: cell-based; settings: Lymphoma; for IC50: Homo sapiens, BC1, BC-1, 72 hours
Description: as §1, §2, §3, §4

Toledo = assay: CellTiter-Glo cell viability assay, Toledo; assay type: cell-based; settings: Lymphoma; for IC50: Homo sapiens, 72 hours
Description: as §1, §2, §3, §4

H1650 = assay: CellTiter-Glo cell viability assay, H1650; assay type: cell-based; settings: NSCLC; for IC50: Homo sapiens, NCI-H1650, H1650, 72 hours
Description: as §1, §2, §3, §4

H1437 = assay: CellTiter-Glo cell viability assay, H1437; assay type: cell-based; settings: NSCLC; for IC50: Homo sapiens, NCI-H1437, H1437, 72 hours
Description: as §1, §2, §3, §4

ES2 = assay: CellTiter-Glo cell viability assay, ES2; assay type: cell-based; settings: Ovarian; for IC50: Homo sapiens, ES-2, ES2, 72 hours
Description: as §1, §2, §3, §4

% PPB, mouse = assay type: in vitro ADME; settings: plasma; mouse (m)
% PPB, human = assay type: in vitro ADME; settings: plasma; human (hu)
S9 in vitro half-life = assay type: in vitro ADME; settings: S9 fraction

Work on `O=C(NO)c1ccc(Nc2nc3ccccc3n2C2CCCCCC2)cc1` [ID #3, 4-((1-cycloheptyl-1H-benzo[d]imidazol-2-yl)amino)-N-hydroxybenzamide] yielded an IC50 (MDA-157) of 7.59 µM, an IC50 (MDA468) of 9.33 µM and an IC50 (AN3CA) of 4.57 µM. It also gave an IC50 (SKUT-1) of 9.55 µM, an IC50 (MFE296) of 12.6 µM and an IC50 (KMS-11) of 3.02 µM. It also gave an IC50 (RPMI-8226) of 1.51 µM, an IC50 (U266) of 4.1 µM and an IC50 (MV411) of 2.75 µM. The IC50 (SUDHL-4) was 4.17 µM, the IC50 (OCI-LY3) was 2.29 µM and the IC50 (RAMOS) was 2.88 µM. The IC50 (Mino) was 4.17 µM, the IC50 (BC-1) was 4.93 µM and the IC50 (Toledo) was 3.21 µM. The IC50 (H1650) was 18.2 µM, the IC50 (H1437) was 4.79 µM and the IC50 (ES2) was 13.2 µM. The fraction unbound (% PPB, mouse) was 0.0052, the fraction unbound (% PPB, human) was 0.0064 and the half-life (S9 in vitro half-life) was 1.22 h.

For `O=C(NO)c1ccc(Nc2nc3ccccc3n2CC2CCCCC2)cc1` [ID #1, 4-((1-(cyclohexylmethyl)-1H-benzo[d]imidazol-2-yl)amino)-N-hydroxybenzamide], the “Improvement ID #1 over ID #3 Percent” value (MDA-157; MDA-157) was 63.77%, the “Improvement ID #1 over ID #3 fold” value (MDA-157; MDA-157) was 2.76 fold and the IC50 (MDA-157) was 2.75 µM. The “Improvement ID #1 over ID #3 Percent” value (MDA468; MDA468) was 58.63%, the “Improvement ID #1 over ID #3 fold” value (MDA468; MDA468) was 2.42 fold and the IC50 (MDA468) was 3.86 µM. For the same compound, the IC50 (AN3CA) was 1.6 µM, the “Improvement ID #1 over ID #3 Percent” value (AN3CA) was 64.99% and the “Improvement ID #1 over ID #3 fold” value (AN3CA) was 2.86 fold. The IC50 (SKUT-1) was 3.8 µM, the “Improvement ID #1 over ID #3 Percent” value (SKUT-1; SKUT-1) was 60.21% and the “Improvement ID #1 over ID #3 fold” value (SKUT-1; SKUT-1) was 2.51 fold. The IC50 (MFE296) was 4.37 µM, the “Improvement ID #1 over ID #3 Percent” value (MFE296; MFE296) was 65.29% and the “Improvement ID #1 over ID #3 fold” value (MFE296; MFE296) was 2.88 fold. The IC50 (KMS-11) was 1.42 µM, the “Improvement ID #1 over ID #3 Percent” value (KMS-11; KMS-11) was 52.98% and the “Improvement ID #1 over ID #3 fold” value (KMS-11; KMS-11) was 2.13 fold. For the same compound, the IC50 (RPMI-8226) was 0.66 µM, the “Improvement ID #1 over ID #3 Percent” value (RPMI-8226; RPMI-8226) was 56.29% and the “Improvement ID #1 over ID #3 fold” value (RPMI-8226; RPMI-8226) was 2.29 fold. The IC50 (U266) was 1.17 µM, the “Improvement ID #1 over ID #3 Percent” value (U266; U266) was 71.46% and the “Improvement ID #1 over ID #3 fold” value (U266; U266) was 3.50 fold. The “Improvement ID #1 over ID #3 Percent” value (MV411; MV411) was 77.09%, the “Improvement ID #1 over ID #3 fold” value (MV411; MV411) was 4.37 fold and the IC50 (MV411) was 0.63 µM. The IC50 (SUDHL-4) was 0.24 µM, the “Improvement ID #1 over ID #3 Percent” value (SUDHL-4; SUDHL-4) was 94.24% and the “Improvement ID #1 over ID #3 fold” value (SUDHL-4; SUDHL-4) was 17.38 fold. For the same compound, the IC50 (OCI-LY3) was 1.05 µM, the “Improvement ID #1 over ID #3 Percent” value (OCI-LY3; OCI-LY3) was 54.15% and the “Improvement ID #1 over ID #3 fold” value (OCI-LY3; OCI-LY3) was 2.18 fold. For the same compound, the IC50 (RAMOS) was 1.38 µM, the “Improvement ID #1 over ID #3 Percent” value (RAMOS) was 52.08% and the “Improvement ID #1 over ID #3 fold” value (RAMOS) was 2.09 fold. For the same compound, the IC50 (Mino) was 1.2 µM, the “Improvement ID #1 over ID #3 Percent” value (Mino) was 71.22% and the “Improvement ID #1 over ID #3 fold” value (Mino) was 3.48 fold. The IC50 (BC-1) was 1.79 µM, the “Improvement ID #1 over ID #3 Percent” value (BC-1; BC-1) was 63.69% and the “Improvement ID #1 over ID #3 fold” value (BC-1; BC-1) was 2.75 fold. For the same compound, the IC50 (Toledo) was 0.81 µM, the “Improvement ID #1 over ID #3 Percent” value (Toledo) was 74.77% and the “Improvement ID #1 over ID #3 fold” value (Toledo) was 3.96 fold. The IC50 (H1650) was 6.61 µM, the “Improvement ID #1 over ID #3 Percent” value (H1650; H1650) was 63.68% and the “Improvement ID #1 over ID #3 fold” value (H1650; H1650) was 2.75 fold. For the same compound, the IC50 (H1437) was 2.19 µM, the “Improvement ID #1 over ID #3 Percent” value (H1437; H1437) was 54.28% and the “Improvement ID #1 over ID #3 fold” value (H1437; H1437) was 2.19 fold. For the same compound, the IC50 (ES2) was 3.98 µM, the “Improvement ID #1 over ID #3 Percent” value (ES2; ES2) was 69.80% and the “Improvement ID #1 over ID #3 fold” value (ES2; ES2) was 3.31 fold. The fraction unbound (% PPB, mouse) was 0.0045, the fraction unbound (% PPB, human) was 0.0056 and the half-life (S9 in vitro half-life) was 1.25 h.
